# System: TIG-3 cells
# Assay: Evaluation test of mitochondrial function: amount of ATP production (decrease in oxygen consumption rate by oligomycin) after H2O2 treatment
# Assay type: cell-based
# Conditions: for Measured value: amount of ATP production (amount of decrease in oxygen consumption rate by the ATP synthase inhibitor): TIG-3 cells cultured 24 h with test substance, then H2O2 800 μM for two hours, XF analyzer, concentrations of SE and PQQ·2Na per example; for Recovery rate (%) from Comparative Example 1: measured value divided by that of Comparative Example 1 (H2O2 800 μM only) x 100
# Method: To examine mitochondrial function, TIG-3 cells at 5.5×10^3 cells/well were seeded onto cell culture plates, and cultured at 37° C. with CO2 (5%) for 24 hours. After 24 hours of culturing, compositions each containing a sesamin-episesamin mixture and PQQ were added to the media in the wells at the respective concentrations shown in Table 1 below, and cultured for 24 hours. Subsequently, the media containing the sesamin-episesamin mixture and the PQQ were removed, and the cells in the wells were treated with media containing H2O2 (800 μM) for two hours. Subsequently, each medium was replaced with an analysis medium, and the oxygen consumption rate was analyzed using an analyzer (XF analyzer, Agilent Technologies Japan, Ltd.). After completion of analysis, the nuclei were stained with Hoechst, and the cells were photographed by a fluorescence microscope “BZ-x” (Keyence Corporation). The number of cells was counted by image analysis. The amount of ATP production was the amount of decrease in oxygen consumption rate by the ATP synthase inhibitor (oligomycin).
# (§1) To examine mitochondrial function, TIG-3 cells at 5.5×10^3 cells/well were seeded onto a dedicated plate, and cultured at 37° C. with CO2 (5%) for 24 hours. The cells were further cultured for 26 hours without adding a sesamin-episesamin mixture and a composition containing PQQ to the medium 24 hours after the first culturing and without treating cells in the well with a medium containing H2O2 (800 μM) for two hours. Then, the oxygen consumption rate in Reference Example 1 was analyzed and the number of cells was counted as in Example 1, except for the differences described above. The amount of ATP production was also measured.
# as §1, with “24” for “26”, “culturing.” for “culturing and without treating cells in the well with a medium containing H2O2 (800 μM) for two hours.”, “Comparative” for “Reference”
# To examine mitochondrial function, TIG-3 cells at 5.5×10^3 cells/well were seeded onto a dedicated plate, and cultured at 37° C. with CO2 (5%) for 24 hours. After 24 hours of culturing, a sesamin-episesamin mixture or PQQ was added to each medium in the wells at the corresponding concentration shown in Table 1 below, and cultured for 24 hours. Except what is described above, the oxygen consumption rate in each of Comparative Examples 2 to 9 was analyzed, and the number of cells was counted as in Example 1. The amount of ATP production was measured.
# In Table 1, values in “Measured value” (pmol/min/10^3 cells) show the amount of ATP production (the amount of decrease in oxygen consumption rate by the ATP synthase inhibitor) determined above.
# Values in “Recovery rate (%) from Comparative Example 1” are each obtained by dividing a measured value in one example or comparative example by the measured value of Comparative Example 1 and multiplying the resulting value with 100. A higher recovery rate means a larger amount of ATP production. […] In FIG. 1, “SE” indicates the sesamin-episesamin mixture.
Compound,Measured value: amount of ATP production (amount of decrease in oxygen consumption rate by the ATP synthase inhibitor) [pmol/min/10^3 cells],"decline in the amount of ATP production compared to the H2O2-treated group according to Comparative Example 1 (TIG-3 cells, H2O2 800 μM) [%]",Recovery rate (%) from Comparative Example 1 (TIG-3 cells) [%],"increase in the amount of ATP production compared to the H2O2-treated group according to Comparative Example 1 (TIG-3 cells, H2O2 800 μM) [%]"
"O=C([O-])c1cc(C(=O)[O-])c2c(n1)C(=O)C(=O)c1cc(C(=O)O)[nH]c1-2.[Na+].[Na+] [Comparative Example 5, PQQ·2Na]",6.06,5.5,94.5,
"O=C([O-])c1cc(C(=O)[O-])c2c(n1)C(=O)C(=O)c1cc(C(=O)O)[nH]c1-2.[Na+].[Na+] [Comparative Example 6, PQQ·2Na]",6.49,,101.1,1.1
"O=C([O-])c1cc(C(=O)[O-])c2c(n1)C(=O)C(=O)c1cc(C(=O)O)[nH]c1-2.[Na+].[Na+] [Comparative Example 7, PQQ·2Na]",6.71,,104.6,4.6
"O=C([O-])c1cc(C(=O)[O-])c2c(n1)C(=O)C(=O)c1cc(C(=O)O)[nH]c1-2.[Na+].[Na+] [Comparative Example 8, PQQ·2Na]",7.40,,115.3,15.3
"O=C([O-])c1cc(C(=O)[O-])c2c(n1)C(=O)C(=O)c1cc(C(=O)O)[nH]c1-2.[Na+].[Na+] [Comparative Example 9, PQQ·2Na]",7.56,,117.8,17.8

# Source: patent US12396471B2, “Composition containing sesamin and PQQ” (SUNTORY HOLDINGS LIMITED, priority 2019, dated 2025)
